# PMC6522510 (Nature Communications, 2019)
# Where two headings read alike, the source gives them in different places.
# Key:
# MOLM-13 [1] = test: Secondary dose-response HTS, Cell Titer Glo; format: cell-based, human; settings: MOLM-13; for EC50: Homo sapiens
# MV4-11 [2] = test: Secondary dose-response HTS, Cell Titer Glo; format: cell-based, human; settings: MV4-11; for EC50: Homo sapiens
# CHRF288-11 [3] = test: Secondary dose-response HTS, Cell Titer Glo; format: cell-based, human; settings: for EC50: Homo sapiens
# CMK [4] = test: Secondary dose-response HTS, Cell Titer Glo; format: cell-based, human; settings: CMK; for EC50: Homo sapiens
# CMS [5] = test: Secondary dose-response HTS, Cell Titer Glo; format: cell-based, human; settings: for EC50: Homo sapiens
# M07e [6] = test: Secondary dose-response HTS, Cell Titer Glo; format: cell-based, human; settings: for EC50: Homo sapiens, M-07e
# U937 [7] = test: Secondary dose-response HTS, Cell Titer Glo; format: cell-based, human; settings: for EC50: Homo sapiens, U-937
# [8] = system: MLLr primary AML blast samples; test: Ex vivo drug treatment of primary AML blasts on mesenchymal stromal cells; format: cell-based; settings: Homo sapiens; primary blasts on MSC, 96 h, range over patient samples
# [9] = system: AMKL primary AML blast samples; test: as above; format: cell-based; settings: Homo sapiens; primary blasts on MSC, 96 h
# [10] = system: FLT3-ITD+ primary AML blast samples
# ML2 = test: Secondary dose-response HTS, Cell Titer Glo; format: cell-based, human; settings: ML-2; for EC50: Homo sapiens
# MOLM-13 [11] = test: cells; design: species or system AML cell lines (8); Secondary HTS, 10-point dose-response in triplicate, Cell Titer Glo viability, four-parameter fit EC50; settings: Homo sapiens; 72 h cell viability; read-out: MOLM-13
# MV4-11 [12] = test: cells; design: species or system AML cell lines (8); settings: Homo sapiens, MV4-11, 72 h, read-out: MV4-11
# CHRF288-11 [13] = test: cells; design: species or system AML cell lines (8); settings: 72 h, read-out: CHRF288-11
# CMK [14] = test: cells; design: species or system AML cell lines (8); settings: Homo sapiens, 72 h, read-out: CMK
# CMS [15] = test: cells; design: species or system AML cell lines (8); settings: 72 h, read-out: CMS
# M07e [16] = test: cells; design: species or system AML cell lines (8); settings: M-07e, 72 h, read-out: M07e
# ML-2 = test: cells; design: species or system AML cell lines (8); settings: Homo sapiens, ML-2, 72 h, read-out: ML-2
# U937 [17] = test: cells; design: species or system AML cell lines (8); settings: Homo sapiens, U-937, 72 h, read-out: U937
# MOLM-13 [18] = test: cells; design: species or system AML cell lines (8); Secondary HTS, 10-point dose-response in triplicate, Cell Titer Glo viability, four-parameter fit EC50; settings: Homo sapiens, MOLM-13, 72 h, read-out: MOLM-13
# MV4-11 [19] = test: cells; design: species or system AML cell lines (8); Secondary HTS, 10-point dose-response in triplicate, Cell Titer Glo viability, four-parameter fit EC50; settings: Homo sapiens, MV4-11, 72 h, read-out: MV4-11
# CHRF288-11 [20] = test: cells; design: species or system AML cell lines (8); Secondary HTS, 10-point dose-response in triplicate, Cell Titer Glo viability, four-parameter fit EC50; settings: 72 h, read-out: CHRF288-11
# CMK [21] = test: cells; design: species or system AML cell lines (8); Secondary HTS, 10-point dose-response in triplicate, Cell Titer Glo viability, four-parameter fit EC50; settings: Homo sapiens, CMK, 72 h, read-out: CMK
# CMS [22] = test: cells; design: species or system AML cell lines (8); Secondary HTS, 10-point dose-response in triplicate, Cell Titer Glo viability, four-parameter fit EC50; settings: 72 h, read-out: CMS
# M07e [23] = test: cells; design: species or system AML cell lines (8); Secondary HTS, 10-point dose-response in triplicate, Cell Titer Glo viability, four-parameter fit EC50; settings: M-07e, 72 h, read-out: M07e
# U937 [24] = test: cells; design: species or system AML cell lines (8); Secondary HTS, 10-point dose-response in triplicate, Cell Titer Glo viability, four-parameter fit EC50; settings: Homo sapiens, U-937, 72 h, read-out: U937
# [25] = system: panel of 8 AML cell lines; test: Secondary dose-response HTS, whole panel; format: cell-based, human; settings: secondary HTS (Supplementary Data 2)
# [26] = secondary HTS, 72 h, average of triplicate, read-out: EC50 MOLM-13
# [27] = secondary high-throughput screen, read-out: average effective concentration, MOLM-13
# [28] = secondary HTS, 72 h, average of triplicate, read-out: EC50 MV4-11
# [29] = secondary high-throughput screen, read-out: average effective concentration, MV4-11
# [30] = HTS, secondary high-throughput screen, CHRF288-11, read-out: average effective concentration, CHRF288-11
# [31] = secondary HTS, 72 h, average of triplicate, read-out: EC50 CHRF288-11
# [32] = secondary HTS, 72 h, average of triplicate, read-out: EC50 CMK
# [33] = secondary high-throughput screen, read-out: average effective concentration, CMK
# [34] = secondary HTS, 72 h, average of triplicate, read-out: EC50 CMS
# [35] = secondary HTS, 72 h, average of triplicate, read-out: EC50 M07e
# [36] = secondary high-throughput screen, M07e, read-out: average effective concentration, M07e
# [37] = secondary HTS, 72 h, average of triplicate, read-out: EC50 U937
# [38] = HTS, secondary high-throughput screen, CMS, read-out: average effective concentration, CMS
# [39] = secondary high-throughput screen, U937, read-out: average effective concentration, U937
# [40] = secondary high-throughput screen, read-out: average effective concentration, ML-2
# [41] = secondary high-throughput screen
# [42] = secondary high-throughput screen, CHRF288-11
# [43] = secondary high-throughput screen, U937
compound,measurement,setting,value
"CC(C)C[C@H](NC(=O)[C@H](CCc1ccccc1)NC(=O)CN1CCOCC1)C(=O)N[C@@H](Cc1ccccc1)C(=O)N[C@@H](CC(C)C)C(=O)[C@@]1(C)CO1 [Carfilzomib, reference compound]",EC50,MOLM-13 [1]; [26],10 nM
same,EC50,MOLM-13 [1]; [27],5.44 nM
same,EC50,MV4-11 [2]; [28],1 nM
same,EC50,MV4-11 [2]; [29],1.1 nM
same,EC50,CHRF288-11 [3]; [30],19 nM
same,EC50,CHRF288-11 [3]; [31],20 nM
same,EC50,CMK [4]; [32],10 nM
same,EC50,CMK [4]; [33],6 nM
same,EC50,CMS [5]; [34],1 nM
same,EC50,M07e [6]; [35],1 nM
same,EC50,M07e [6]; [36],1.4 nM
same,EC50,U937 [7]; [37],10 nM
same,IC50,[8],4.3 to 53 nM
same,IC50,[9],54 nM
same,IC50,[10],6 to 62 nM
"CC(=O)c1c(C)c2cnc(Nc3ccc(N4CCNCC4)cn3)nc2n(C2CCCC2)c1=O [Palbociclib, reference compound]",EC50,CMK [4]; [33],3500 nM
same,EC50,CMS [5]; [38],9100 nM
same,EC50,U937 [7]; [39],10000 nM
same,IC50,[8],1110 to 4000 nM
same,IC50,[9],5170 nM
same,IC50,[10],979 to 5260 nM
"CCOc1cc(C(C)(C)C)ccc1C1=N[C@@](C)(c2ccc(Cl)cc2)[C@@](C)(c2ccc(Cl)cc2)N1C(=O)N1CCN(CCCS(C)(=O)=O)CC1 [RG7112, reference compound]",EC50,MOLM-13 [1]; [27],290 nM
same,EC50,MV4-11 [2]; [29],2500 nM
same,EC50,M07e [6]; [36],> 10000 nM
same,EC50,ML2; [40],6800 nM
same,IC50,[8],149 to 845 nM
same,IC50,[10],77 to 952 nM
"C/C=C1\NC(=O)[C@H]2CSSCC/C=C/[C@H](CC(=O)N[C@H](C(C)C)C(=O)N2)OC(=O)[C@H](C(C)C)NC1=O [Romidepsin, reference compound]",EC50,MOLM-13 [1]; [26],1 nM
same,EC50,MOLM-13 [1]; [27],0.67 nM
same,EC50,MV4-11 [2]; [28],1 nM
same,EC50,MV4-11 [2]; [29],0.6 nM
same,EC50,CHRF288-11 [3]; [30],6.5 nM
same,EC50,CHRF288-11 [3]; [31],10 nM
same,EC50,CMK [4]; [32],10 nM
same,EC50,CMK [4]; [33],8 nM
same,EC50,CMS [5]; [34],1 nM
same,EC50,M07e [6]; [35],2 nM
same,EC50,"M07e [6]; secondary high-throughput screen, […], read-out: average effective concentration, M07e",1.7 nM
same,EC50,"ML2; secondary HTS, 72 h, average of triplicate, read-out: EC50 ML2",4 nM
same,EC50,ML2; [40],3.8 nM
same,EC50,U937 [7]; [37],3 nM
same,EC50,U937 [7]; [39],3.2 nM
same,IC50,[8],1.6 to 6 nM
same,IC50,[9],5 nM
same,IC50,[10],3.8 to 13 nM
Cn1c(COP(=O)(NCCBr)NCCBr)cnc1[N+](=O)[O-] [TH-302],"average effective concentration, MOLM-13",MOLM-13 [1]; [41],Inactive
same,"average effective concentration, MV4-11",MV4-11 [2]; [41],Inactive
same,"average effective concentration, CHRF288-11",CHRF288-11 [3]; [42],Inactive
same,"average effective concentration, CMK",CMK [4]; [41],Inactive
same,"average effective concentration, CMS","CMS [5]; secondary high-throughput screen, CMS",Inactive
same,"average effective concentration, M07e","M07e [6]; secondary high-throughput screen, […]",Inactive
same,"average effective concentration, ML-2",ML2; [41],Inactive
same,"average effective concentration, U937",U937 [7]; [43],Inactive
same,EC50,MOLM-13 [11],> 10000 nM
same,EC50,MV4-11 [12],> 10000 nM
same,EC50,CHRF288-11 [13],> 10000 nM
same,EC50,CMK [14],> 10000 nM
same,EC50,CMS [15],> 10000 nM
same,EC50,M07e [16],> 10000 nM
same,EC50,ML-2,> 10000 nM
same,EC50,U937 [17],> 10000 nM
Cn1ncnc1[C@H]1c2n[nH]c(=O)c3cc(F)cc(c23)N[C@@H]1c1ccc(F)cc1 [Talazoparib],IC50,[10],1980 to 2460 nM
CC(=O)Nc1cccc(-n2c(=O)n(C3CC3)c(=O)c3c(Nc4ccc(I)cc4F)n(C)c(=O)c(C)c32)c1 [Trametinib],EC50,ML2; [40],1 nM
same,IC50,[8],1.6 to 1470 nM
same,IC50,[10],130 to 5310 nM
same,EC50,MOLM-13 [18],> 10000 nM
same,EC50,MV4-11 [19],> 10000 nM
same,EC50,CHRF288-11 [20],> 10000 nM
same,EC50,CMK [21],> 10000 nM
same,EC50,CMS [22],> 10000 nM
same,EC50,M07e [23],> 10000 nM
same,EC50,U937 [24],> 10000 nM
"CC1(C)CCC(CN2CCN(c3ccc(C(=O)NS(=O)(=O)c4ccc(NCC5CCOCC5)c([N+](=O)[O-])c4)c(Oc4cnc5[nH]ccc5c4)c3)CC2)=C(c2ccc(Cl)cc2)C1 [Venetoclax, reference compound]",EC50,MOLM-13 [1]; [27],> 10000 nM
same,EC50,MV4-11 [2]; [29],1 nM
same,"average effective concentration, CHRF288-11",CHRF288-11 [3]; [42],Inactive
same,"average effective concentration, CMK",CMK [4]; [41],Inactive
same,EC50,"CMS [5]; HTS, read-out: average effective concentration, CMS",> 10000 nM
same,"average effective concentration, M07e","M07e [6]; secondary high-throughput screen, M07e",Inactive
same,"average effective concentration, ML-2",ML2; [41],Inactive
same,"average effective concentration, U937",U937 [7]; [43],Inactive
same,IC50,[8],46 to 1050 nM
same,IC50,[10],3.2 to 16 nM
"O=C(CCCCCCC(=O)Nc1ccccc1)NO [Vorinostat, reference compound]",EC50,MV4-11 [2]; [29],790 nM
same,IC50,[10],304 to 2890 nM
"CCN(CCCOc1ccc2c(Nc3cc(CC(=O)Nc4cccc(F)c4)n[nH]3)ncnc2c1)CCOP(=O)(O)O [barasertib, reference compound]",EC50,MOLM-13 [1]; [27],7 nM
same,EC50,MV4-11 [2]; [29],1 nM
same,EC50,CMK [4]; [33],35 nM
same,EC50,ML2; [40],1 nM
same,EC50,U937 [7]; [39],1 nM
same,active cell lines out of 8 in HTS,[25],3/8
"COc1cc(OC)c(/C=C/S(=O)(=O)Cc2ccc(OC)c(NCC(=O)O)c2)c(OC)c1 [rigosertib, reference compound]",EC50,MOLM-13 [1]; [27],6 nM
same,EC50,CHRF288-11 [3]; [30],17 nM
same,EC50,CMK [4]; [33],3.61 nM
same,EC50,CMS [5]; [38],11 nM
same,EC50,ML2; [40],15 nM
same,EC50,U937 [7]; [39],5 nM
same,active cell lines out of 8 in HTS,[25],7/8
